Data as given in patent US10828368B2, “Therapeutic treatments using centhaquin” (MIDWESTERN UNIVERSITY, priority 2009, dated 2020).
“Also recorded” adds a separate entry of the source. Like-named read-outs stand apart in the source and are kept apart here.

Assays:
[1] = system: urethane anaesthetized rats; test: Cardiovascular response (MAP, PP, HR) of drugs in urethane anaesthetized rats; assay type: in vivo, rat; conditions: for decrease in MAP / reduction in HR / fall in MAP / decrease in PP: compared to baseline; for dose-response effect on MAP, PP and HR: clonidine 10, 30, 90 μg/kg i.v., centhaquin 0.05, 0.15, 0.45 mg/kg i.v.
Text: Rats were anaesthetized with urethane (1.5 g/kg i.p.) and prepared for the determination of hemodynamic parameters (Gulati and Srimal, 1993; Gulati et al., 1997b). The anesthetized rats were shaved and immobilized to prepare for cannulation. A 2-3 cm incision was made above the femoral vein and artery, and the vessels were dissected and cleaned. The left femoral vein was cannulated (PE-50 tubing, Clay Adams, Parsipanny, N.J.) and secured for drug administration. An ultra-miniature Pressure transducer SPR-320 (2F Polyurethane), with a single pressure sensor side mounted at the tip (Millar Instruments, Houston, Tex.), was inserted in the left femoral artery to acquire the hemodynamic signals. Pressure transducer was connected to bridge amplifier (ML221 Bridge Amp; AD Instruments, Mountain View, Calif., USA) with Viking connector (AEC-10C) and the signals were continuously acquired at a sampling rate of 1000 S^−1 using Millar PowerLab 16/30 data acquisition system (AD Instruments, Mountain View, Calif., USA). MAP, HR, and PP were determined and analyzed with LabChart-5.00 software program (Millar Instruments). After the experiment was completed, the animals were euthanized with higher dose of urethane (3 gm/kg).
The animals were allowed to stabilize for at least 20 min following surgical procedures.
In the above studies, all drugs were injected through the left femoral vein and changes in MAP, HR, and PP after clonidine and centhaquin injection were recorded for 1 hour using Millar PowerLab 16/30 data acquisition system.

[2] = Arterial blood gas analysis before and one hour after drug; assay type: in vivo, rat; conditions: for changes in arterial blood pH, pO2, pCO2, Na^+, K^+, lactate and hematocrit: before versus one hour after clonidine 90 μg/kg or centhaquin 0.45 mg/kg; for Hct / K^+ / Na^+ / arterial blood pH / pCO2 / pO2: one hour after clonidine 90 μg/kg or centhaquin 0.45 mg/kg
Text: Arterial blood pH, pO2, pCO2, Na^+, K^+, and lactate were monitored prior to and after drug administration. Blood samples were drawn from the arterial cannula using blood gas sampling syringes (Innovative Medical Technologies, Inc. Leawood, Kans.) and analyzed using a GEM Premier 3000 unit (Instrument Laboratory, Lexington, Mass.).
Blood samples were drawn from the arterial cannula using blood gas sampling syringes (Innovative Medical Technologies, Inc. Leawood, Kans.) and analyzed using a GEM Premier 3000 unit (Instrument Laboratory, Lexington, Mass.).

[3] = system: rats; test: Tail-flick latency analgesia (FIGS. 9-13); assay type: in vivo, rat; conditions: iv
[4] = system: rats in the hemorrhagic shock model; test: Hemorrhagic shock model, resuscitation with Ringer's lactate and centhaquin; assay type: in vivo, rat
[5] = system: mice; conditions: intraperitoneal; cited from earlier work
[6] = system: rats; conditions: cited from earlier work
[7] = once a day for 15 days; cited from earlier work
[8] = system: norepinephrine release; conditions: centhaquin 0.1, 1.0 and 10.0 μg/ml; cited from earlier work
[9] = system: α-adrenergic receptors in the hypothalamus and medulla; conditions: chronic administration in rats; with hypotension and bradycardia; cited from earlier work
[10] = system: 5-HT1 receptors in the medulla; conditions: cited from earlier work
[11] = system: rat abdominal aortic ring; test: Clonidine response on the abdominal aortic ring; conditions: for EC50: Rattus norvegicus, read-out: ED50 value, aortic ring contraction
Description: The abdominal aorta was isolated and dissected out from urethane (1.5 g·kg^−1 i.p.) anesthetized rats and was transferred to Krebs bicarbonate buffer pH 7.4 (composition in mM, NaCl, 112.0; KCl, 4.7; KH2PO4, 1.2; MgSO4, 1.2; CaCl2, 2.5; NaHCO3, 25.0; glucose, 11.0) with continuous supply of 95% O2 and 5% CO2 at 37±1° C. The tissue was cut into ring segments (3 mm in length) and mounted in organ baths using 10 mm Radnoti glass ring supports. Extra care was taken while cutting and mounting the ring segment to prevent loss of endothelial layer. Tissue was equilibrated for 45 min by applying 2 g of tension with regular buffer change after every 15 min. Vessels were pre-contracted with 100 mM KCl to determine the viability. Clonidine-induced contractions of aortic ring were measured using Radnoti 8 unit tissue bath (Radnoti Glass Technology, Monrovia, Calif.) and the force transducer coupled with a Grass P7D polygraph. The dose response was recorded for 0.25, 0.5, 1, 2, 4, 6, 8, and 10 μM of clonidine with or without ET-1 (4 nM) treatment and ED50 value was calculated. Experiments were performed in Group 1: Vehicle+Clonidine (0.25 to 10 μM); and Group 2: ET-1 (4 nM)+Clonidine (0.25 to 10 μM) using (n=6) rats in each group.

[12] = system: α2-adrenergic receptors; conditions: higher for α2; cited from earlier work

For `Cc1cccc(N2CCN(CCc3ccc4ccccc4n3)CC2)c1` [Centhaquin], the “decrease in MAP” value ([1]; centhaquin 0.05 mg/kg i.v.) was 15.64%, the “reduction in HR” value ([1]; centhaquin 0.05 mg/kg i.v.) was 10.49% and the “decrease in MAP” value ([1]; centhaquin 0.15 mg/kg i.v.) was 25.15%. The “reduction in HR” value ([1]; centhaquin 0.15 mg/kg i.v.) was 12.57%, the “decrease in MAP” value ([1]; centhaquin 0.45 mg/kg i.v.) was 28.08% and the “reduction in HR” value ([1]; centhaquin 0.45 mg/kg i.v.) was 13.34%. The “dose-response effect on MAP, PP and HR” value [1] was “dose-dependent fall in MAP, and a decrease in HR”, the “dose-response effect on MAP, PP and HR” value ([1]; listed as centhaquin) was “dose-dependent hypotension and bradycardia” and the “changes in arterial blood pH, pO2, pCO2, Na^+, K^+, lactate and hematocrit” value (“changes in arterial blood pH, pO2, pCO2” for short) [2] was “did not affect arterial blood pH, pO2, and pCO2”. For the same compound, the “changes in arterial blood pH, pO2, pCO2” value ([2]; listed as centhaquin) was “no significant changes”, the Hct [2] was 52 ± 1% and the “K^+” value [2] was 4.0 ± 0.2 mmol/L. The “Na^+” value [2] was 140 ± 1 mmol/L, the “arterial blood pH” value [2] was 7.27 ± 0.02 and the pCO2 [2] was 53 ± 2 mmHg. For the same compound, the pO2 [2] was 96 ± 9 mmHg, the “analgesic effect relative to 4 mg/kg dose of morphine” value ([3]; centhaquin 0.3 mg/kg) was “comparable” and the “analgesic effect relative to 4 mg/kg dose of morphine” value ([3]; centhaquin 0.9 mg/kg) was “significantly greater”. For the same compound, the “analgesia (tail-flick latency)” value ([3]; centhaquin 0.1, 0.3 and 0.9 mg/kg) was “dose-dependent analgesia”, the “effect on morphine analgesia” value ([3]; centhaquin 0.3 and 0.9 mg/kg) was “potentiated” and the pressure-volume loops ([4]; LR-100 and centhaquin 0.05 mg/kg compared with LR-100) was “improvement”. The “blood lactate, comparison of centhaquin doses” value ([4]; centhaquin 0.05-0.45 mg/kg) was “lower doses of centhaquin were more effective than the higher doses”, the blood lactate ([4]; centhaquin 0.05-0.45 mg/kg with Ringer's lactate) was “drop in lactate” and the survival time ([4]; centhaquin administered with LR-100) was “increase in survival time”. The LD50 [5] was 600 mg/kg, the “effect on MAP and HR” value ([6]; centhaquin 0.05 to 0.2 mg/kg, iv, urethane anesthetized rats) was “dose-dependent decrease” and the “effect on MAP or HR” value ([6]; cervical sectioned rats, intravenously administered) was “did not produce any effect”. For the same compound, the “effect on MAP or HR” value ([6]; intrathecal administration) was “did not produce any effect”, the “potentiation or tolerance on repeated administration” value [7] was “did not produce any potentiation or tolerance” and the “norepinephrine release evoked by potassium chloride and dimethyl phenyl piperazinium chloride” value [8] was “inhibited”. For the same compound, the “spontaneous release of norepinephrine” value [8] was “initial increase followed by decrease”, the “effect of chronic administration on α-adrenergic receptors in the hypothalamus and medulla” value [9] was “up-regulation” and the “effect of repeated administration on 5-HT1 receptors in the medulla” value [10] was “up-regulation”.

For `Clc1cccc(Cl)c1NC1=NCCN1` [Clonidine, N-(2,6-dichlorophenyl)-4,5-dihydro-1H-imidazol-2-amine], the “decrease in HR” value ([1]; clonidine 10 μg/kg) was 20.84%, the “fall in MAP” value ([1]; clonidine 10 μg/kg i.v.) was 24.02% and the “decrease in PP” value ([1]; clonidine 10 μg/kg) was 33.81%. For the same compound, the “decrease in HR” value ([1]; clonidine 30 μg/kg) was 23.18%, the “fall in MAP” value ([1]; clonidine 30 μg/kg i.v.) was 26.15% and the “decrease in PP” value ([1]; clonidine 30 μg/kg) was 36.39%. The “decrease in HR” value ([1]; clonidine 90 μg/kg) was 23.19%, the “fall in MAP” value ([1]; clonidine 90 μg/kg i.v.) was 19.48% and the “decrease in PP” value ([1]; clonidine 90 μg/kg) was 34.27%. The “dose-response effect on MAP, PP and HR” value [1] was “dose-dependent hypotension and bradycardia; also recorded: dose-dependent fall in mean arterial pressure (MAP), pulse pressure (PP), and a decrease in heart rate (HR)”, the “changes in arterial blood pH, pO2, pCO2” value [2] was “no significant changes” and the Hct [2] was 50 ± 4%. For the same compound, the “K^+” value [2] was 4.3 ± 0.6 mmol/L, the “Na^+” value [2] was 139 ± 2 mmol/L and the “arterial blood pH” value [2] was 7.28 ± 0.03. It also gave a pCO2 [2] of 46 ± 4 mmHg, a pO2 [2] of 100 ± 14 mmHg and an EC50 ([11]; ET-1 (4 nM) treated aorta) of 1810 ± 40 nM. For the same compound, the EC50 ([11]; vehicle treated aorta) was 2640 ± 20 nM, the “percent contraction of aorta” value ([11]; clonidine 2 μM, ET-1 (4 nM) treated aorta) was 75.95±1.36% and the “percent contraction of aorta” value ([11]; clonidine 2 μM, vehicle treated aorta) was 51.017±1.70%. The “percent contraction of aorta” value ([11]; clonidine 4 μM, ET-1 treated aorta) was 96.83±0.54%, the “percent contraction of aorta” value ([11]; clonidine 4 μM, vehicle treated aorta) was 80.27±2.48% and the “contraction in rat abdominal aortic ring” value ([11]; clonidine 0.25-10 μM) was “dose-dependent (0.25-10 μM) contraction”. For the same compound, the “effect on blood pressure and heart rate” value ([6]; clonidine given intravenously in cervical sectioned rats) was “did not produce any effect”, the “effect of chronic administration on α-adrenergic receptors in the hypothalamus and medulla” value [9] was “up-regulation” and the “effect of repeated administration on 5-HT1 receptors in the medulla” value [10] was “up-regulation”. The “binding affinity for α2-adrenergic receptors relative to α1-adrenoreceptors” value [12] was “approximately 10 fold”.
